Experimental data reported in patent US20140173774A1, “SOYBEAN TRAN[…] EFFICIENT AND HIGH-[…] PRODUCTION” (Dow AgroSciences LLC, priority 2012, published 2014).

Key:
soybean explants = assay: Glyphosate selection of split-seed explants transformed with pDAB107553; parameters: species or system Glycine max cv. Maverick
Method: The novel Agrobacterium-mediated soybean split-seed comprising a portion of an embryonic axis transformation method described in Example 2 was used to transform mature soybean (Glycine max) cv. Maverick seeds with an Agrobacterium strain harboring pDAB 107553. Three different concentrations of glyphosate (e.g., 0.025 mM, 0.05 mM and 0.1 mM) were incorporated into the selection schemes for the soybean split-seed comprising a portion of an embryonic axis transformation method.
As the transformation experiment progressed through various subculture stages, the health of the soybean explants deteriorated. […] The intensity of cotyledon yellowing was more prominent in soybean explants cultured on greater rates of glyphosate (FIG. 9).
The surface of the explants was turning soft and creamy in consistency. The softening effect was very pronounced at the end of SE-1 stage onwards.

[1] = test system: un-transformed soybean explants; assay: Glyphosate dose response study on un-transformed soybean explants in tissue culture; settings: for Number of Explants at Various Stages of Selection: End of SE-2 / Number of Explants at Various Stages of Selection: SE-1 / Number of Explants at Various Stages of Selection: SE-2 / Number of Explants at Various Stages of Selection: SI-2: 49 explants at CC
Method: Initially, a dose response study was completed. To test the effect of glyphosate on the explants, glyphosate was added to media used from the shoot initiation stage and onwards. Glyphosate was tested from the range of 0.025-0.2 mM. Incorporation of glyphosate in tissue culture media within this concentration range has been reported in soybean (Clemente et al, 2000; Hinchee et al, 1996; Martinell et al, 2006; Martinell et al, 1999; Martinell et al, 2002), tobacco (Singer et al, 1985), cotton (Zhao et al, 2006) and wheat (Hu et al, 2003). Five concentrations of glyphosate were tested for culturing of un-transformed soybean explants. The concentrations incorporated into the SI-2 media were 0.025 mM, 0.05 mM, 0.075 mM, 0.1 mM and 0.2 mM. The un-transformed soybean explants were maintained on the same rate of glyphosate selection for all the successive stages of subculture from SI-2 media to the completion of the tissue culturing protocol. The numbers of healthy explants were counted at each subculture stage. Dead explants were discarded and healthy explants were subcultured further onto appropriate media.
Growth of the explants was also retarded on glyphosate containing media. Next, the cotyledons were removed and the explants were subcultured from SI-2 to SE media. At the end of another two weeks of selection on SE media, significant differences in the growth of the explants were observed when the explants were exposed to different levels of glyphosate. The retarded growth of the explants was proportionate to the increasing dose of glyphosate. Similarly the number of dead explants was also proportional to the increasing dose of glyphosate. The number of dead explants increased as the dose of glyphosate was increased. […] Subsequently, three different concentrations of glyphosate (e.g., 0.025 mM, 0.05 mM and 0.1 mM) were incorporated into the selection schemes for Agrobacterium-mediated transformation of the soybean split-seed explants comprising a portion of an embryonic axis.

Compound: O=C(O)CNCP(=O)(O)O [glyphosate]
- yellowing of the cotyledons (soybean explants; after first selection cycle, two weeks on SI-2 media): yellowing of the cotyledons was noted
- adverse physiological effects on explants (soybean explants; highest level, 0.1 mM, of 0.025, 0.05 and 0.1 mM): greatest adverse physiological effects
- softening of explant tissue (soybean explants; media containing glyphosate, pronounced from end of SE-1): softening on the surfaces of the plant tissues
- Number of Explants at Various Stages of Selection: End of SE-2 ([1]; 0.025 mM glyphosate): 0
- Number of Explants at Various Stages of Selection: SE-1 ([1]; 0.025 mM glyphosate): 41
- Number of Explants at Various Stages of Selection: SE-2 ([1]; 0.025 mM glyphosate): 38
- Number of Explants at Various Stages of Selection: SI-2 ([1]; 0.025 mM glyphosate): 43
- Number of Explants at Various Stages of Selection: End of SE-2 ([1]; 0.05 mM glyphosate): 0
- Number of Explants at Various Stages of Selection: SE-1 ([1]; 0.05 mM glyphosate): 45
- Number of Explants at Various Stages of Selection: SE-2 ([1]; 0.05 mM glyphosate): 38
- Number of Explants at Various Stages of Selection: SI-2 ([1]; 0.05 mM glyphosate): 45
- Number of Explants at Various Stages of Selection: End of SE-2 ([1]; 0.075 mM glyphosate): 0
- Number of Explants at Various Stages of Selection: SE-1 ([1]; 0.075 mM glyphosate): 45
- Number of Explants at Various Stages of Selection: SE-2 ([1]; 0.075 mM glyphosate): 21
- Number of Explants at Various Stages of Selection: SI-2 ([1]; 0.075 mM glyphosate): 47
- Number of Explants at Various Stages of Selection: End of SE-2 ([1]; 0.1 mM glyphosate): 0
- Number of Explants at Various Stages of Selection: SE-1 ([1]; 0.1 mM glyphosate): 41
- Number of Explants at Various Stages of Selection: SE-2 ([1]; 0.1 mM glyphosate): 13
- Number of Explants at Various Stages of Selection: SI-2 ([1]; 0.1 mM glyphosate): 44
- Number of Explants at Various Stages of Selection: End of SE-2 ([1]; 0.2 mM glyphosate): 0
- Number of Explants at Various Stages of Selection: SE-1 ([1]; 0.2 mM glyphosate): 31
- Number of Explants at Various Stages of Selection: SE-2 ([1]; 0.2 mM glyphosate): 1
- Number of Explants at Various Stages of Selection: SI-2 ([1]; 0.2 mM glyphosate): 42
- explant survival at the end of SE-2 ([1]; all levels of glyphosate tested, after six weeks on selection): all of the explants were dead
- extent of yellowness of the cotyledons ([1]; end of culturing on SI-2 media, about 2 weeks): directly proportional to the dose of glyphosate
- growth of the explants ([1]; glyphosate containing SI-2 media): retarded
- explants survived at the end of SE-1 ([1]; highest dose, 0.2 mM): one
- explant survival after 6 weeks of glyphosate selection ([1]; lowest dose tested, 0.025 mM): none of the soybean explants were able to survive
